Assay results published in BindingDB's records for patent US10053463 (Janssen Pharmaceutica NV, 2018).
pKi: −log10 of the molar value.

Target: T1, P2X purinoceptor 7 (Homo sapiens, UniProt Q99572)
T1 sequence (Q99572 whole entry): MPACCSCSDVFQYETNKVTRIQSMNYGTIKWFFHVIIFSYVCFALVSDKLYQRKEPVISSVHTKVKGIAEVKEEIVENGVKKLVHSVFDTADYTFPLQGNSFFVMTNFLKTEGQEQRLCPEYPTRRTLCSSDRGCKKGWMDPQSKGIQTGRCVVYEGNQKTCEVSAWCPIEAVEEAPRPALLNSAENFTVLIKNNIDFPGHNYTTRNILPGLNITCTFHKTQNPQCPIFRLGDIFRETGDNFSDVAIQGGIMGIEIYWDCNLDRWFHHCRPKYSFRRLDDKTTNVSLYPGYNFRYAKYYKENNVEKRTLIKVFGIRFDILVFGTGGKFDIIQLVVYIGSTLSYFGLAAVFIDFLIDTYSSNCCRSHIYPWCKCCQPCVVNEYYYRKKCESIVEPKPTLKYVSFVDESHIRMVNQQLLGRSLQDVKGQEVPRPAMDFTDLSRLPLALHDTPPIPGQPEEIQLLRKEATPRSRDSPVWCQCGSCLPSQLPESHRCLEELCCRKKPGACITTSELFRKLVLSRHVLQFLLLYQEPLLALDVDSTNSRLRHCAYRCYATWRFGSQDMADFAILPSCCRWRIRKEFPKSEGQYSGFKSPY
Assay: P2X7 Radioligand Binding
Method: human or rat P2X7-1321N1 cells were collected and frozen @−80° C. On the day of the experiment, cell membrane preparations were made according to standard published methods. […] The compound can be prepared as described in the literature. […] The assay was terminated by filtration (GF/B filters pre-soaked with 0.3% PEI) and washed with washing buffer (Tris-HCl 50 mM). The IC50 generated in the binding assay was corrected for tracer concentration and affinity of the tracer to derive at the affinity (K) of the test compounds. […] Data are analyzed and graphed on Graphpad Prism 5.

First: NNC(=O)c1ncccn1 [US10053463, 8]
Second: NNC(=O)c1ccncn1 [US10053463, 9]
The pKi of the first is 0.30 log units lower: 7.70 for the first, 8.00 for the second.

`O=C1NCCn2c1nnc2-c1cnccn1` [US10053463, 1] was tested, and the pKi was 7.20.
